Reference: patent US7531543B2, “Phenylpiperazine cycloalkanol derivatives and methods of their use” (Wyeth, priority 2003, dated 2009)
Structures can show the parent of a compound that is named as a salt.

Molecular target: T1, human hNET (Homo sapiens, UniProt P23975)
T1 construct: expressed in transfected cells; host or cells: MDCK-Net6 (MDCK cells stably transfected with hNET)
Assay: Norepinephrine (NE) uptake assay in MDCK-Net6 cells
Assay type: cell-based
Details: [3H]NE uptake, MDCK-Net6 cells stably transfected with hNET; for EC50: test range 1 to 10,000 nM
Method: MDCK-Net6 cells, stably transfected with human hNET (Pacholczyk, T., R. D. Blakely, and S. G. Amara, Nature, 1991, 350(6316): p. 350-4) were cultured in growth medium containing high glucose DMEM (Gibco, Cat. No. 11995), 10% FBS (dialyzed, heat-inactivated, US Bio-Technologies, Lot FBD1129HI) and 500 µg/ml G418 (Gibco, Cat. No. 10131). Cells were plated at 300,000/T75 flask and cells were split twice weekly. The JAR cell line (human placental choriocarcinoma) was purchased from ATCC (Cat. No. HTB-144). The cells were cultured in growth medium containing RPMI 1640 (Gibco, Cat. No. 72400), 10% FBS (Irvine, Cat. No. 3000), 1% sodium pyruvate (Gibco, Cat. No. 1136) and 0.25% glucose. Cells were plated at 250,000 cells/T75 flask and split twice weekly. For all assays, cells were plated in Wallac 96-well sterile plates (PerkinElmer, Cat. No. 3983498).
Norepinephrine (NE) Uptake Assay
On day 1, cells were plated at 3,000 cells/well in growth medium and maintained in a cell incubator (37° C., 5% CO2). On day 2, growth medium was replaced with 200 μl of assay buffer (25 mM HEPES; 120 mM NaCl; 5 mM KCl; 2.5 mM CaCl2; 1.2 mM MgSO4; 2 mg/ml glucose (pH 7.4, 37° C.)) containing 0.2 mg/ml ascorbic acid and 10 μM pargyline. Plates containing cells with 200 μl of assay buffer were equilibrated for 10 minutes at 37° C. prior to addition of compounds. A stock solution of desipramine was prepared in DMSO (10 mM) and delivered to triplicate wells containing cells for a final test concentration of 1 μM. Data from these wells were used to define non-specific NE uptake (minimum NE uptake). Test compounds were prepared in DMSO (10 mM) and diluted in assay buffer according to test range (1 to 10,000 nM). Twenty-five microliters of assay buffer (maximum NE uptake) or test compound were added directly to triplicate wells containing cells in 200 μl of assay buffer. The cells in assay buffer with test compounds were incubated for 20 minutes at 37° C. To initiate the NE uptake, [^3H]NE diluted in assay buffer (120 nM final assay concentration) was delivered in 25 μl aliquots to each well and the plates were incubated for 5 minutes (37° C.). The reaction was terminated by decanting the supernatant from the plate. The plates containing cells were washed twice with 200 μl assay buffer (37° C.) to remove free radioligand. The plates were then inverted, left to dry for 2 minutes, then reinverted and air-dried for an additional 10 minutes. The cells were lysed in 25 μl of 0.25 N NaOH solution (4° C.), placed on a shake table and vigorously shaken for 5 minutes. After cell lysis, 75 μl of scintillation cocktail was added to each well and the plates were sealed with film tape. The plates were returned to the shake table and vigorously shaken for a minimum of 10 minutes to ensure adequate partitioning of organic and aqueous solutions. The plates were counted in a Wallac Microbeta counter (PerkinElmer) to collect the raw cpm data.
For each experiment, a data stream of cpm values collected from the Wallac Microbeta counter was downloaded to a Microsoft Excel statistical application program. Calculations of EC50 values were made using the transformed-both-sides logistic dose response program written by Wyeth Biometrics Department. The statistical program uses mean cpm values from wells representing maximum binding or uptake (assay buffer) and mean cpm values from wells representing minimum binding or uptake ((1 μM desipramine (hNET) or 1 μM paroxetine (hSERT)). Estimation of the EC50 value was completed on a log scale and the line was fit between the maximum and minimum binding or uptake values. All graphic data representation was generated by normalizing each data point to a mean percent based on the maximum and minimum binding or uptake values. The EC50 values reported from multiple experiments were calculated by pooling the raw data from each experiment and analyzing the pooled data as one experiment.

T1 sequence (P23975 whole entry): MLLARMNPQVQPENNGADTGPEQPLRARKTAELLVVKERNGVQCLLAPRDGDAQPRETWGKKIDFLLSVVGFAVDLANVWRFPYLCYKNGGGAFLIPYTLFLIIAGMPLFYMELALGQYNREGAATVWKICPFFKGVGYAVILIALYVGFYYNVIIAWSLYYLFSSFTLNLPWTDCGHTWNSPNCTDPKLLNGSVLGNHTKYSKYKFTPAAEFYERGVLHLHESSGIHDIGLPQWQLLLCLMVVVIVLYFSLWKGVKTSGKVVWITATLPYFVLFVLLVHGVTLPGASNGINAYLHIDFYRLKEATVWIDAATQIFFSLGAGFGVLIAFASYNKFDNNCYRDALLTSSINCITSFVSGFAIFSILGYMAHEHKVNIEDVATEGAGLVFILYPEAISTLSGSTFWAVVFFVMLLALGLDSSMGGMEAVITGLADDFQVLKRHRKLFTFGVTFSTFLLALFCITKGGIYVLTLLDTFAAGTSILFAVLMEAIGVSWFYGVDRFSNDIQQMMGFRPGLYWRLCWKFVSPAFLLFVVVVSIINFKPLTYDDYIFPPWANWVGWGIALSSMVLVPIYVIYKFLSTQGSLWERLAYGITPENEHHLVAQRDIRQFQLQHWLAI

Structure (SMILES) | inhibition at 1 µM (1 μM test compound) | EC50 | % Inhibition @ 1 μM (hNET) (1 μM test compound)
C[C@@H]1CN(CC(c2cccc(Cl)c2)C2(O)CCCCC2)C[C@H](C)N1 (stereo partly drawn) [Example 2, 1-{1-(3-chlorophenyl)-2-[(3R,5S)-3,5-dimethylpiperazin-1-yl]ethyl}cyclohexanol dihydrochloride] | 97% | 150 nM | –
OC1(C(CN2CCNCC2)c2cccc(Br)c2)CCCCC1 (stereo not drawn) [Example 3, 1-[1-(3-bromophenyl)-2-piperazin-1-ylethyl]cyclohexanol dihydrochloride] | 96% | 100 nM | –
C[C@H]1CN(CC(c2cccc(Cl)c2)C2(O)CCCCC2)CCN1 (stereo partly drawn) [Example 4, 1-{1-(3-chlorophenyl)-2-[(3S)-3-methylpiperazin-1-yl]ethyl}cyclohexanol dihydrochloride] | 95% | 59 nM | –
C[C@@H]1CN(CC(c2cccc(Cl)c2)C2(O)CCCCC2)CCN1 (stereo partly drawn) [Example 5, 1-{1-(3-chlorophenyl)-2-[(3R)-3-methylpiperazin-1-yl]ethyl}cyclohexanol dihydrochloride] | 94% | 110 nM | –
OC1(C(CN2CCNCC2)c2ccc(Cl)c(Cl)c2)CCCCC1 (stereo not drawn) [Example 6, 1-[1-(3,4-dichlorophenyl)-2-piperazin-1-ylethyl]cyclohexanol dihydrochloride] | 87% | 210 nM | –
OC1(C(CN2CCNCC2)c2cccc(Br)c2)CCCCCC1 (stereo not drawn) [Example 7, 1-[1-(3-bromophenyl)-2-piperazin-1-ylethyl]cycloheptanol dihydrochloride] | 86% | – | –
OC1(C(CN2CCNCC2)c2cccc(Cl)c2)CCCCCC1 (stereo not drawn) [Example 8, 1-[1-(3-chlorophenyl)-2-piperazin-1-ylethyl]cycloheptanol dihydrochloride] | 81% | – | –
OC1(C(CN2CCNCC2)c2cccc(F)c2)CCCCC1 (stereo not drawn) [Example 9, 1-[1-(3-fluorophenyl)-2-piperazin-1-ylethyl]cyclohexanol dihydrochloride] | 79% | 720 nM | –
OC1(C(CN2CCNCC2)c2cccc(Cl)c2)CCCC1 (stereo not drawn) [Example 10, 1-[1-(3-chlorophenyl)-2-piperazin-1-ylethyl]cyclopentanol dihydrochloride] | 63% | – | –
OC1(C(CN2CCNCC2)c2ccc(F)cc2)CCCCC1 (stereo not drawn) [Example 11, 1-[1-(4-fluorophenyl)-2-piperazin-1-ylethyl]cyclohexanol dihydrochloride] | 60% | 6400 nM | –
OC1(C(CN2CCNCC2)c2ccc(Br)cc2)CCC1 (stereo not drawn) [Example 12, 1-[1-(4-bromophenyl)-2-piperazin-1-ylethyl]cyclobutanol dihydrochloride] | 55% | – | –
COc1ccc(C(CN2CCNCC2)C2(O)CCCC2)cc1Br (stereo not drawn) [Example 13, 1-[1-(3-bromo-4-methoxyphenyl)-2-piperazin-1-ylethyl]cyclopentanol dihydrochloride] | 53% | – | –
OC1(C(CN2CCNCC2)c2cccc(C(F)(F)F)c2)CCC1 (stereo not drawn) [Example 14, 1-{2-piperazin-1-yl-1-[3-(trifluoromethyl)phenyl]ethyl}cyclobutanol dihydrochloride] | 27% | – | –
CN1CCN(CC(c2cccc(C(F)(F)F)c2)C2(O)CCC2)CC1 (stereo not drawn) [Example 15, 1-{2-(4-methylpiperazin-1-yl)-1-[3-(trifluoromethyl)phenyl]ethyl}cyclobutanol dihydrochloride] | 51% | – | –
OC1(C(CN2CCNCC2)c2cccc(Br)c2)CCCC1 (stereo not drawn) [Example 16, 1-[1-(3-bromophenyl)-2-piperazin-1-ylethyl]cyclopentanol dihydrochloride] | 51% | – | –
OC1(C(CN2CCNCC2)c2ccc(Br)cc2)CCCCC1 (stereo not drawn) [Example 17, 1-[1-(4-bromophenyl)-2-piperazin-1-ylethyl]cyclohexanol dihydrochloride] | 46% | – | –

Structure (SMILES) | inhibition at 1 µM (1 μM test compound) | EC50 | % Inhibition @ 1 μM (hNET) (1 μM test compound)
OC1(C(CN2CCNCC2)c2ccc(Cl)cc2)CCC1 (stereo not drawn) [Example 18, 1-[1-(4-chlorophenyl)-2-piperazin-1-ylethyl]cyclobutanol dihydrochloride] | 44% | – | –
OC1(C(CN2CCNCC2)c2ccc(F)cc2)CCC1 (stereo not drawn) [Example 19, 1-[1-(4-fluorophenyl)-2-piperazin-1-ylethyl]cyclobutanol dihydrochloride] | 43% | – | –
Cl.Cl.OC1(C(CN2CCNCC2)c2ccc(Br)cc2)CCC1 (stereo not drawn) [Example 20, 1-[1-(4-bromophenyl)-2-piperazin-1-ylethyl]cyclobutanol dihydrochloride] | – | – | 55%
CN1CCN(CC(c2ccc(Br)cc2)C2(O)CCC2)CC1 (stereo not drawn) [Example 21, 1-[1-(4-bromophenyl)-2-(4-methylpiperazin-1-yl)ethyl]cyclobutanol dihydrochloride] | 36% | – | –
OC1(C(CN2CCNCC2)c2cccc(F)c2)CCC1 (stereo not drawn) [Example 22, 1-[1-(3-fluorophenyl)-2-piperazin-1-ylethyl]cyclobutanol dihydrochloride] | 34% | – | –
OC1(C(CN2CCNCC2)c2cccc(Cl)c2)CCC1 (stereo not drawn) [Example 23, 1-[1-(3-chlorophenyl)-2-piperazin-1-ylethyl]cyclobutanol dihydrochloride] | 28% | – | –
CN1CCN(CC(c2cccc(Cl)c2)C2(O)CCC2)CC1 (stereo not drawn) [Example 24, 1-[1-(3-chlorophenyl)-2-(4-methylpiperazin-1-yl)ethyl]cyclobutanol dihydrochloride] | 34% | – | –
OC1(C(CN2CCNCC2)c2ccccc2F)CCCCC1 (stereo not drawn) [Example 25, 1-[1-(2-fluorophenyl)-2-piperazin-1-ylethyl]cyclohexanol dihydrochloride] | 31% | – | –
OC1(C(CN2CCNCC2)c2ccc(Cl)cc2)CCCCC1 (stereo not drawn) [Example 26, 1-[1-(4-chlorophenyl)-2-piperazin-1-ylethyl]cyclohexanol dihydrochloride] | 29% | – | –
OC1(C(CN2CCNCC2)c2cccc(Br)c2)CCC1 (stereo not drawn) [Example 27, 1-[1-(3-bromophenyl)-2-piperazin-1-ylethyl]cyclobutanol dihydrochloride] | 22% | – | –
OC1(C(CN2CCNCC2)c2ccccc2F)CCC1 (stereo not drawn) [Example 28, 1-[1-(2-fluorophenyl)-2-piperazin-1-ylethyl]cyclobutanol dihydrochloride] | 14% | – | –
CN1CCN(CC(c2cccc(F)c2)C2(O)CCC2)CC1 (stereo not drawn) [Example 29, 1-[1-(3-fluorophenyl)-2-(4-methylpiperazin-1-yl)ethyl]cyclobutanol dihydrochloride] | 12% | – | –
CN1CCN(CC(c2ccc(Cl)cc2)C2(O)CCC2)CC1 (stereo not drawn) [Example 30, 1-[1-(4-chlorophenyl)-2-(4-methylpiperazin-1-yl)ethyl]cyclobutanol dihydrochloride] | -1% | – | –
CN1CCN(CC(c2ccccc2F)C2(O)CCC2)CC1 (stereo not drawn) [Example 31, 1-[1-(2-fluorophenyl)-2-(4-methylpiperazin-1-yl)ethyl]cyclobutanol dihydrochloride] | -6% | – | –
CN1CCN(CC(c2ccc(F)cc2)C2(O)CCC2)CC1 (stereo not drawn) [Example 32, 1-[1-(4-fluorophenyl)-2-(4-methylpiperazin-1-yl)ethyl]cyclobutanol dihydrochloride] | -10% | – | –
OC1(C(CN2CCNCC2)c2ccccc2Br)CCCCC1 (stereo not drawn) [Example 33, 1-[1-(2-bromophenyl)-2-piperazin-1-ylethyl]cyclohexanol dihydrochloride] | 35% | – | –
